Laboratory results published in patent US8999986B2, “Pyrrolo [2,3—D] pyrazin—7—ylpyrimidine compounds” (Merck Patent GmbH, priority 2009, dated 2015).
Where two headings read alike, the source gives them in different places.

Tests used:
[1] = tested on: phospho-T308-PKB in PC3 cells; assay: Cellular testing of PDK1 kinase inhibitors in PC3 cells (Luminex, phospho-T308-PKB); assay type: cell-based; conditions: Homo sapiens
Method: Method for the Cellular Testing of PDK1 Kinase Inhibitors in PC3 Cells.
The cellular assay for the determination of the PDK1 kinase activity is carried out as a Luminex assay in the 96-well format. PC3 cells are sown at 20,000 cells per well in 100 μl of medium (45% of […]/45% of Ham's F12/10% of FCS) and incubated on the following day for 30 min with a serial dilution of the test substance (7 concentrations) under serum-free conditions. The cells are subsequently lysed using 90 μl of lysis buffer (20 mM tris/HCl pH 8.0, 150 mM NaCl, 1% of NP40, 10% of glycerol, 1% of phosphatase inhibitor I, 1% of phosphatase inhibitor II, 0.1% of protease inhibitor cocktail 111, 0.01% of benzonase) per well, and the lysates are separated off from insoluble cell constituents by means of centrifugation through a 96-well filter plate (0.65 μm). The lysates are incubated overnight at 4° C. with shaking with Luminex beads to which an anti-total PKB antibody is coupled. The detection is carried out on the following day by addition of a phospho-T308-PKB antibody and a species-specific […] secondary antibody. The detection of phospho-T308-PKB is carried out by measurement in a Luminex100 instrument by determination of 100 events per cavity in a measurement time of 60 sec. As pharmacological blank, the signals obtained from cells which have been treated with 10 μM staurosporin are subtracted from all other batches. The control value used for maximum phosphorylation of PKB on T308 are the signals from cells which have only been treated with the solvent (0.3% of DMSO). The values of the batches treated with test substance are calculated therefrom as percentage of control, and IC50 values are determined by means of RS1.

PDK1 = target: T1, PDK1 (Homo sapiens, UniProt O15530); assay: Test for the inhibition of PDK1 (flashplate, 33P-ATP); assay type: biochemical; conditions: His6-PDK1(1-50) 3.4 nM, 4 μM ATP, 30° C., 60 min
T1 construct: His6 (N)
T1 sequence (O15530 51-556 limits assumed): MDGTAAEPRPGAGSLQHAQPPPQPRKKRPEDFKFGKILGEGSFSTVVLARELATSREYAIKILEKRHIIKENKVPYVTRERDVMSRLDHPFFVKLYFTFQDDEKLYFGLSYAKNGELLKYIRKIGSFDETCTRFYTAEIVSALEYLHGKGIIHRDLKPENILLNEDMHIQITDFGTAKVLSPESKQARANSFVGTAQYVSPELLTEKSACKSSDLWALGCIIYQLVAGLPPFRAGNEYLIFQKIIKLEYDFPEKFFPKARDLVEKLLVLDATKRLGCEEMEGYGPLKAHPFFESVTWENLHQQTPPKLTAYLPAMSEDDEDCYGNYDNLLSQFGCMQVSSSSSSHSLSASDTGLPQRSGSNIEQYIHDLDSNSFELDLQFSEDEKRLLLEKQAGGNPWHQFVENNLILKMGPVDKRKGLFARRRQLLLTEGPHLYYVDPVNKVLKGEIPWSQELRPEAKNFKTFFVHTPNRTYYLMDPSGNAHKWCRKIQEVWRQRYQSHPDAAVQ
Method: The experimental batches are carried out in a flashplate system with 384 wells/microtitration plate.
In each case, the PDK1 sample His6-PDK1(1-50)(3.4 nM), the PDK1 substrate biotin-bA-bA-[…] (400 nM), 4 μM ATP (with 0.2 μCi of ^33P-ATP/well) and the test substance in 50 μl of conventional experimental solution per well are incubated at 30° C. for 60 min. The test substances are employed in corresponding concentrations (if desired in a dilution series). The control is carried out without test substance. The reaction is stopped using standard methods and washed. The activity of the kinase is measured via the incorporated radioactivity in top count. In order to determine the non-specific kinase reaction (blank value), the experimental batches are carried out in the presence of 100 nM staurosporin.
The radioactivity (decompositions per minute) of the blank value (no use of test substance in the presence of staurosporin) is subtracted from all other radioactivity values. The controls (kinase activity without test substance) are set equal to 100 percent and all other radioactivity values (after subtracting the blank value) are expressed set in relation thereto (for example in % of the control).
[formula] IC50 values (50% inhibition) are determined with the aid of statistics pro-grammes, such as, for example, RS1.

[2] = PC-3, cellular assay, cell line not named, read-out: IC50 [cell]

IC50 [1, 2]	IC50 (PDK1)	IC50 ([1]; PC-3, 0.5 h, PC3 cells, 30 min with test substance, serum-free, read-out: IC50 [P-PKB T308])	SMILES
420 nM	90 nM		COCOC(C)(c1ccccc1)c1cc(-c2c[nH]c3ncc(-c4cnn(C)c4)nc23)nc(N)n1 (stereo not drawn) [A5, 4-(1-Methoxymethoxy-1-phenylethyl)-6-[2-(1-methyl-1H-pyrazol-4-yl)-5H-pyrrolo[2,3-b]pyrazin-7-yl]pyrimidin-2-ylamine]
160 nM	17 nM		CCC(O)(c1ccncc1)c1cc(-c2c[nH]c3ncc(-c4cnn(C)c4)nc23)nc(N)n1 (stereo not drawn) [A28, 1-{2-Amino-6-[2-(1-methyl-1H-pyrazol-4-yl)-5H-pyrrolo[2,3-b]pyrazin-7-yl]-pyrimidin-4-yl}-1-pyridin-4-ylpropan-1-ol]
4.8 nM	24 nM		CC[C@@](O)(c1cc(-c2c[nH]c3ncc(-c4cnn(C)c4)nc23)nc(N)n1)c1ccccc1F (single isomer, unassigned) [A31]
600 nM	90 nM		CCC(OCOC)(c1cc(-c2c[nH]c3ncc(-c4cnn(C)c4)nc23)nc(N)n1)c1ccncc1F (stereo not drawn) [A27, 4-[1-(3-Fluoropyridin-4-yl)-1-methoxymethoxypropyl]-6-[2-(1-methyl-1H-pyrazol-4-yl)-5H-pyrrolo[2,3-b]pyrazin-7-yl]pyrimidin-2-ylamine]
2.2 nM	90 nM		CC[C@](O)(c1cccc(F)c1)c1cc(-c2c[nH]c3ncc(-c4cnn(C)c4)nc23)nc(N)n1 (single isomer, unassigned) [A29]
570 nM	43 nM		Cn1cc(-c2cnc3[nH]cc(-c4cc([C@@](C)(O)c5ccccc5F)nc(N)n4)c3n2)cn1 (single isomer, unassigned) [A8]
260 nM	77 nM		COCOC(C)(c1cc(-c2c[nH]c3ncc(-c4cnn(C)c4)nc23)nc(N)n1)c1ccccc1F (stereo not drawn) [A7, 4-[1-(2-Fluorophenyl)-1-methoxymethoxyethyl]-6-[2-(1-methyl-1H-pyrazol-4-yl)-5H-pyrrolo[2,3-b]pyrazin-7-yl]pyrimidin-2-ylamine]
570 nM	55 nM		Cn1cc(-c2cnc3[nH]cc(-c4cc(C(C)(O)c5ccccc5)nc(N)n4)c3n2)cn1 (stereo not drawn) [A4, 1-{2-Amino-6-[2-(1-methyl-1H-pyrazol-4-yl)-5H-pyrrolo[2,3-b]pyrazin-7-yl]-pyrimidin-4-yl}-1-phenylethanol]
150 nM	47 nM		Cn1cc(-c2cnc3[nH]cc(-c4cc([C@](C)(O)c5ccccc5F)nc(N)n4)c3n2)cn1 (single isomer, unassigned) [A9]
2.9 nM	95 nM		CC[C@](O)(c1cc(-c2c[nH]c3ncc(-c4cnn(C)c4)nc23)nc(N)n1)c1ccccc1F (single isomer, unassigned) [A32]
580 nM	44 nM		CCC(O)(c1cc(-c2c[nH]c3ncc(-c4cnn(C)c4)nc23)nc(N)n1)c1ccncc1F (stereo not drawn) [A26, 1-{2-Amino-6-[2-(1-methyl-1H-pyrazol-4-yl)-5H-pyrrolo[2,3-b]pyrazin-7-yl]-pyrimidin-4-yl}-1-(3-fluoropyridin-4-yl)propan-1-ol]
530 nM	71 nM		Cn1cc(-c2cnc3[nH]cc(-c4cc(C(C)(O)c5cccc(F)c5)nc(N)n4)c3n2)cn1 (stereo not drawn) [A3, 1-{2-amino-6-[2-(1-methyl-1H-pyrazol-4-yl)-5H-pyrrolo[2,3-b]pyrazin-7-yl]-pyrimidin-4-yl}-1-(3-fluorophenyl)ethanol]
190 nM	31 nM		Cn1cc(-c2cnc3[nH]cc(-c4cc(C(C)(O)c5ccccc5F)nc(N)n4)c3n2)cn1 (stereo not drawn) [A6, 1-{2-Amino-6-[2-(1-methyl-1H-pyrazol-4-yl)-5H-pyrrolo[2,3-b]pyrazin-7-yl]-pyrimidin-4-yl}-1-(2-fluorophenyl)ethanol]
21 nM	18 nM		CC[C@@](O)(c1cccc(F)c1)c1cc(-c2c[nH]c3ncc(-c4cnn(C)c4)nc23)nc(N)n1 (single isomer, unassigned) [A30]
92 nM	54 nM		CCC(O)(c1cc(-c2c[nH]c3ncc(-c4cnn(C)c4)nc23)nc(N)n1)c1ccccc1F (stereo not drawn) [A24, 1-{2-Amino-6-[2-(1-methyl-1H-pyrazol-4-yl)-5H-pyrrolo[2,3-b]pyrazin-7-yl]-pyrimidin-4-yl}-1-(2-fluorophenyl)propan-1-ol]
250 nM	350 nM		CC(C)n1cc(-c2cnc3[nH]cc(-c4cc(C(C)(O)c5ccccc5F)nc(N)n4)c3n2)cn1 (stereo not drawn) [A33, 1-{2-Amino-6-[2-(1-isopropyl-1H-pyrazol-4-yl)-5H-pyrrolo[2,3-b]pyrazin-7-yl]-pyrimidin-4-yl}-1-(2-fluorophenyl)ethanol]
110 nM	36 nM		CCC(O)(c1cccc(F)c1)c1cc(-c2c[nH]c3ncc(-c4cnn(C)c4)nc23)nc(N)n1 (stereo not drawn) [A25, 1-{2-Amino-6-[2-(1-methyl-1H-pyrazol-4-yl)-5H-pyrrolo[2,3-b]pyrazin-7-yl]-pyrimidin-4-yl}-1-(3-fluorophenyl)propan-1-ol]
	120 nM	810 nM	COCOC(C)(c1cccc(F)c1)c1cc(-c2c[nH]c3ncc(-c4cnn(C)c4)nc23)nc(N)n1 (stereo not drawn) [A2, 4-[1-(3-fluorophenyl)-1-methoxymethoxyethyl]-6-[2-(1-methyl-1H-pyrazol-4-yl)-5H-pyrrolo[2,3-b]pyrazin-7-yl]pyrimidin-2-ylamine]
